Test results taken from article PMC3133966 (Nature neuroscience, 2011).

What was measured:
[1] = target: T1, KCNQ5 (Kv7.5); presynaptic KCNQ5 homomers (Rattus norvegicus, UniProt F1LY25); assay: whole-cell patch clamp of rat calyx of Held, outward K+ current; format: cell-based; conditions: read-out: % inhibition at 100 μM
[2] = target: T1, KCNQ5 (Kv7.5); presynaptic KCNQ5 homomers; assay: as above; format: cell-based; conditions: read-out: % of control current remaining at 10 μM

T1 sequence (F1LY25 1-951): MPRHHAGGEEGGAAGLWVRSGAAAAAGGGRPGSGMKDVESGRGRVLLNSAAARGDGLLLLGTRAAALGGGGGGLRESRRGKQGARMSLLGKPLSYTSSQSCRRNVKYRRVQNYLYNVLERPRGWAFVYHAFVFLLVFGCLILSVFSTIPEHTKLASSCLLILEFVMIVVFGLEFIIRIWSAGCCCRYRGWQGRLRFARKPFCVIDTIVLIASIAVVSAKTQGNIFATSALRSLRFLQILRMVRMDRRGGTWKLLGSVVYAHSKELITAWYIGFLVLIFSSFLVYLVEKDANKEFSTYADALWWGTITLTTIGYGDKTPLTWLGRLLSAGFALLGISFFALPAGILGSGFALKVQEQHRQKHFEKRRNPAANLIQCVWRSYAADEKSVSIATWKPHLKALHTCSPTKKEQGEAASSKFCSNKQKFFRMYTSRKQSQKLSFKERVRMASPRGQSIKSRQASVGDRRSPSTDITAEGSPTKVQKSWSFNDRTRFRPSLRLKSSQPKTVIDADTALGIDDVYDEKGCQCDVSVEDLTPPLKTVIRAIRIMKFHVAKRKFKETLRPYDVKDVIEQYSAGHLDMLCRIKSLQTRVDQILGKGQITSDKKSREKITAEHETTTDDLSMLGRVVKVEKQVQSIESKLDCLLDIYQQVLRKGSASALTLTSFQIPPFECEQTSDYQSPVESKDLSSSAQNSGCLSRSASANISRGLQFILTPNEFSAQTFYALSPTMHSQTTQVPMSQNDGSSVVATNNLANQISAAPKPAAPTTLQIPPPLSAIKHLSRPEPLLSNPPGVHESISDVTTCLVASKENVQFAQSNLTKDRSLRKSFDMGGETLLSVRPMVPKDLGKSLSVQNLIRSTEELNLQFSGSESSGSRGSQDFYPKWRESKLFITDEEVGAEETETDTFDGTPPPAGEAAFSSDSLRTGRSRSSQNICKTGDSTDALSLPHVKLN

| SMILES | inhibition at 100 µM [1] [%] | remaining activity at 10 µM [2] [%] |
| --- | --- | --- |
| O=C(O)Cc1ccccc1Nc1c(Cl)cccc1Cl [diclofenac] | 53 ± 4 |  |
| O=C1N(c2ccccc2)c2ccccc2C1(Cc1ccncc1)Cc1ccncc1 [linopirdine] |  | 17 ± 4 |
